Data published in patent publication US20240284918A1, “INSECT REPELLENT COMPOSITION AND A METHOD OF REPELLING INSECTS” (Åbo Akademi, priority 2021, published 2024).

Experiments:
[1] = tested on: Ixodes Ricinus (male, female and nymphs); assay: Tick repellent testing (treated cylinder/stick and human volunteer's forearm); type: in vivo; settings: stick test, FIG. 4
[2] = tested on: Ixodes larvae, nymph forms and adults (female and male); assay: Field testing, treated tick sheet dragging; type: in vivo; settings: treated cotton sheet dragged 35 x 10 m; 5% vanillin in all FA and HFA solutions; vs commercial product Punkkiassa (19% IR3535)
Excerpt: Tick-dragging method was adopted to study the effectiveness of the product in repelling ticks in their natural habitat in Ruissalo, Turku. A square of 1 m^2 cotton sheet was divided in three parallel divisions and the borders were marked with pencil: 100*45 cm division on both sides (A and B) and a 100*10 cm neutral strip in the middle (N). Both A and B were both treated with a solution from a solution test pair (or left untreated for control drags) from that side of the sheet that would face the ground during dragging. The neutral zone was always left untreated. The evenly sprayed solution was let settle on the sheet for ˜15 minutes before the first drag. The sheet was dragged for 10 m with the treated side down with moderate pace in an even, tick-friendly biotope. After every 10 meter drag, the treated side was inspected for Ixodes larvae, nymph forms and adults (female and male). Number of individuals in every (4) form per department (A, B or N) was counted. Every test pair/sheet was dragged 35 times during the same day between 08:00 AM and 02:00 PM. No new solution was added to the sheet during the day. The time of start for every draw was checked. We tested different product types for field studies like FA (5, 10, 20%) and HFA (10 & 20%) and also included a commercial tick repellent (Punkkiassa) as a positive control. […]

Aedes albopictus = assay: Mosquito repellent testing on human forearm in test cage (ASTM E951-83); type: in vivo; settings: text summary of Table 4
Procedure: The mosquitos used in this study were Aedes albopictus. Mosquito repellent activity of the tested samples (listed in Table 2) was assessed by using the test cage as described by Songkro et al (2012), in the American Society for Testing and Materials (ASTM) standard […]-83 Laboratory testing of non-commercial mosquito repellent composition on the skin. The sample was tested on human subject. The same volunteers tested all the formulations under laboratory conditions. According to the method described by Coucci and Müller (2018), 50 adult female Aedes albopictus mosquitoes were transferred into the mosquito proof enclosed cage with the help of aspirator tube. The compositions to be tested were applied to the forearm ([…]) of the volunteers. The applied hand was introduced into the cage and the number of bites was recorded. After every 30 minutes the volunteer hands were subjected to the cage for 5 minutes and the numbers of mosquito bites were noted. Same procedure was implemented for control. Control study is done by placing the forearm in cage without application of tested sample. Before starting each replication, the mosquitoes' propensity to bite is assessed by inserting an untreated forearm into the cage. […] According to this procedure different compositions were tested by applying on the forearm with fresh mosquitoes every time of testing.

[3] = tested on: nymphs and the female ticks of the Ixodus ricinu species; assay: Tick repellency of IR3535 (test results received from Entostudio laboratory, Italy); settings: in vivo

Structure (SMILES)	tick repellent activity (in words) [1]	repellency of nymphs in field test (FIG. 5) [2]	mosquito repellent activity (in words) (Aedes albopictus)	repellency of nymphs and female ticks [3]
C=C1CC[C@H]2O[C@]2(C)CC[C@@H]2[C@@H]1CC2(C)C [Caryophyllene oxide]	not very effective	–	–	–
CC(=O)CC/C=C(\C)CC/C=C(\C)CCC=C(C)C [FA, Farnesyl acetone]	–	repelled nymphs very effectively compared to the commercial product	efficient repellent activity	–
CC(=O)CCCC(C)CCCC(C)CCCC(C)C (stereo not drawn) [HFA, 6,10,14-trimethyl-pentadecanone]	–	repelled nymphs very effectively compared to the commercial product	efficient repellent activity	–
CCCCN(CCC(=O)OCC)C(C)=O [IR3535, 3-[N-butyl-N-acetyl]-aminopropionic acid, ethyl ester]	–	–	–	does not repel the nymphs and the female ticks
